For five compounds, Rf, inhibition and IC50 results are on record in ChEMBL document CHEMBL3425400, “Is RK-682 a promiscuous enzyme inhibitor? Synthesis and in vitro evaluation of protein tyrosine phosphatase inhibition of racemic RK-682 and analogues” (Eur J Med Chem, 2015).

Each structure is given as a SMILES string. Active and inactive are the calls of the source. No cut-off for these calls is given here. Where only a bound is given, the exact number is not on record here.

System in the first series: not listed separately
The series can be described thus: Retardation factor of the compound using Hexanes:AcOEt (1:1) as solvent system by column chromatography. In kind it is physicochemical.
Conditions: not given
On to `CCCCCCCCCCCCCCCC(=O)C1=C(O)OC(C)(C)OC1=O`, for which the Rf was determined as 0.5.

System in a further series: not listed separately
The series can be described thus: Retardation factor of the compound using Hexanes:AcOEt (1:2) as solvent system by column chromatography. The class given is physicochemical.
Conditions: not given
`CC(C)C(=O)C1=C(O)OC(C)(C)OC1=O`: the Rf is on record as 0.5.

In turn, `CCCC(=O)C1=C(O)OC(C)(C)OC1=O` yielded a Rf of 0.47.

In a further series the target is T1, Low molecular weight phosphotyrosine protein phosphatase (Homo sapiens) (UniProt P24666).
T1 sequence (whole entry): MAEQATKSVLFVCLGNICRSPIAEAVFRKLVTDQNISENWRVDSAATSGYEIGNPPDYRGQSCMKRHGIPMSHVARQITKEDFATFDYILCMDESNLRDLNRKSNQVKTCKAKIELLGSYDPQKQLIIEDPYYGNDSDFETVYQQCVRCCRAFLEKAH
Briefly: Inhibition of full length 6-His-N-terminal tagged human LMW-PTP expressed in Escherichia coli BL21 (DE3) cells assessed as pNP formation using pNPP as substrate at 100 uM incubated for 15 mins prior to substrate addition by plate reader analysis.
Conditions: not given
On to `CC(C)C(=O)C1=C(O)OC(C)(C)OC1=O`, for which the inhibition entry was “inactive”.

Turning to `CCCC(=O)C1=C(O)OC(C)(C)OC1=O`, the inhibition entry was “inactive”.

For the compound `CC(=O)C1=C(O)OC(C)(C)OC1=O`, the inhibition entry was “inactive”.

A further series has as its target T2, Low molecular weight phosphotyrosine protein phosphatase (Homo sapiens, UniProt P24666).
T2 sequence (P24666 whole entry): T1 sequence (whole entry)
Briefly: Inhibition of full length 6-His-N-terminal tagged human LMW-PTP expressed in Escherichia coli BL21 (DE3) cells assessed as pNP formation using pNPP as substrate incubated for 15 mins prior to substrate addition by plate reader analysis.
Conditions: not given
As a reminder, the IC50 is the concentration at which inhibition is half-maximal. As to `CCCCCCCCCCCCCCCC(=O)C1=C(O)CC(COCc2ccccc2)OC1=O` (stereo not drawn), the IC50 is greater than 100 µM.

In the case of `CCCCCCCCCCCCCCCC(=O)C1=C(O)OC(C)(C)OC1=O`, the IC50 was determined as 22 µM.

System in the next series: not listed separately
The series can be described thus: Retardation factor of the compound using Hexanes:AcOEt (7:3) as solvent system by column chromatography. In kind it is physicochemical.
Conditions: not given
`CCCCCCCCCCCCCCCC(=O)C1=C(O)CC(COCc2ccccc2)OC1=O` (stereo not drawn) showed a Rf of 0.71.

The next series deals with T1, Low molecular weight phosphotyrosine protein phosphatase (Homo sapiens). The series can be described thus: Mixed type of inhibition of full length 6-His-N-terminal tagged human LMW-PTP expressed in Escherichia coli BL21 (DE3) cells using pNPP as substrate by Lineweaver-Burk plot analysis.
Conditions: not given
For `CCCCCCCCCCCCCCCC(=O)C1=C(O)OC(C)(C)OC1=O`, the inhibition result is “Active”.

Another series addresses T3, Tyrosine-protein phosphatase non-receptor type 1 (Homo sapiens, UniProt P18031).
T3 sequence (P18031 whole entry): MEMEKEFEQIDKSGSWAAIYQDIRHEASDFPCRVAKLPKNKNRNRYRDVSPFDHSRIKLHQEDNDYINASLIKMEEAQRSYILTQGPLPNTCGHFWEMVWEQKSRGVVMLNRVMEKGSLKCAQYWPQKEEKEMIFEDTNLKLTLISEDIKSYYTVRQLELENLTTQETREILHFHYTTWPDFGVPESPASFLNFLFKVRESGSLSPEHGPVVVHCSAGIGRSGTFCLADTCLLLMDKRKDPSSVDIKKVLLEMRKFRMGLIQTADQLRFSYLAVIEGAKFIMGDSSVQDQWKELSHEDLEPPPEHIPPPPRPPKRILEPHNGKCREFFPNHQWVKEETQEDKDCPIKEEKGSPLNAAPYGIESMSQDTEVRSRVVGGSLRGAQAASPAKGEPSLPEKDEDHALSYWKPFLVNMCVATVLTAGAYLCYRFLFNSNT
The series can be described thus: Inhibition of 6-His-N-terminal tagged human PTP1B expressed in Escherichia coli BL21 (DE3) cells assessed as pNP formation using pNPP as substrate incubated for 15 mins prior to substrate addition by plate reader analysis.
Conditions: not given
With `CCCCCCCCCCCCCCCC(=O)C1=C(O)CC(COCc2ccccc2)OC1=O` (stereo not drawn), the concentration for half-maximal inhibition (IC50) amounted to 5.6 µM.

In the case of `CC(C)C(=O)C1=C(O)OC(C)(C)OC1=O`, the IC50 came out at 72.7 µM.

As to `CCCC(=O)C1=C(O)OC(C)(C)OC1=O`, the IC50 was greater than 100 µM.

Turning to `CC(=O)C1=C(O)OC(C)(C)OC1=O`, the IC50 is greater than 100 µM.

`CCCCCCCCCCCCCCCC(=O)C1=C(O)OC(C)(C)OC1=O`: the half-maximal inhibitory concentration (IC50) came out at 1 µM.

The target in another series is T4, M-phase inducer phosphatase 2 (Homo sapiens, UniProt P30305).
T4 sequence (P30305 whole entry): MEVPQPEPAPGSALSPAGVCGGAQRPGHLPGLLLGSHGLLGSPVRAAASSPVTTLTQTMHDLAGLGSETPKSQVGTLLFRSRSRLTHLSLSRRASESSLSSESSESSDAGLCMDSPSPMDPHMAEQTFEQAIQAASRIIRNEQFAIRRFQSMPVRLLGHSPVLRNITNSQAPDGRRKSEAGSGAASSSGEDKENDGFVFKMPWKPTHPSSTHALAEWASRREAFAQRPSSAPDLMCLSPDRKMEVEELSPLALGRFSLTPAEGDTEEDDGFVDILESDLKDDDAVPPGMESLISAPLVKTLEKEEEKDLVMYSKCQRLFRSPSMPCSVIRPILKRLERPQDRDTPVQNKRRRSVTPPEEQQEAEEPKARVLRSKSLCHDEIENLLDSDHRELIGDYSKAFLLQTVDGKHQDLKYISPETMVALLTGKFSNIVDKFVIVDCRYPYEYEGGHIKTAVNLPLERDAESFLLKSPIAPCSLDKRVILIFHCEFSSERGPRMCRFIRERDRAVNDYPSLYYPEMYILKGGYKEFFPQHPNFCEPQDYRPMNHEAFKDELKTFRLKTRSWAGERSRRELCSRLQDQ
Briefly: Inhibition of 6-His-N-terminal tagged human CDC-25B isoform 3 catalytic domain expressed in Escherichia coli BL21 (DE3) cells assessed as pNP formation using pNPP as substrate incubated for 15 mins prior to substrate addition by plate reader analysis.
Conditions: not given
As to `CCCCCCCCCCCCCCCC(=O)C1=C(O)CC(COCc2ccccc2)OC1=O` (stereo not drawn), the IC50 was determined as 7.2 µM.

As for `CC(C)C(=O)C1=C(O)OC(C)(C)OC1=O`, the IC50 was greater than 100 µM.

In the case of `CCCCCCCCCCCCCCCC(=O)C1=C(O)OC(C)(C)OC1=O`, the IC50 was 13.7 µM.

Another series concerns the target T5, Tyrosine-protein phosphatase non-receptor type 1 (Homo sapiens) (UniProt P18031).
T5 sequence (whole entry): T3 sequence (P18031 whole entry)
Briefly: Mixed type of inhibition of 6-His-N-terminal tagged human PTP1B expressed in Escherichia coli BL21 (DE3) cells using pNPP as substrate by Lineweaver-Burk plot analysis.
Conditions: not given
Take `CCCCCCCCCCCCCCCC(=O)C1=C(O)OC(C)(C)OC1=O`: the inhibition entry is “Active”.

In the next series the target is T5, Tyrosine-protein phosphatase non-receptor type 1 (Homo sapiens). Briefly: Inhibition of 6-His-N-terminal tagged human PTP1B expressed in Escherichia coli BL21 (DE3) cells assessed as pNP formation using pNPP as substrate incubated for 15 mins prior to substrate addition by plate reader analysis in presence of 25 mM ammonium sulfate.
Conditions: not given
Turning to `CCCCCCCCCCCCCCCC(=O)C1=C(O)OC(C)(C)OC1=O`, the inhibition result is “inactive”.

A further series shares this target. Briefly: Time-dependent inhibition of 6-His-N-terminal tagged human PTP1B expressed in Escherichia coli BL21 (DE3) cells using pNPP as substrate treated with compound prior to substrate addition by plate reader analysis. The note with it: TDE = time-dependent effect.
As for `CCCCCCCCCCCCCCCC(=O)C1=C(O)OC(C)(C)OC1=O`, the inhibition result was “tde”.

The next series addresses T6, M-phase inducer phosphatase 2 (Homo sapiens) (UniProt P30305).
T6 sequence (whole entry): T4 sequence (P30305 whole entry)
Briefly: Inhibition of 6-His-N-terminal tagged human CDC-25B isoform 3 catalytic domain expressed in Escherichia coli BL21 (DE3) cells assessed as pNP formation using pNPP as substrate at 100 uM incubated for 15 mins prior to substrate addition by plate reader analysis.
Conditions: not given
Regarding `CCCC(=O)C1=C(O)OC(C)(C)OC1=O`, the inhibition entry is “inactive”.

With `CC(=O)C1=C(O)OC(C)(C)OC1=O`, the inhibition entry was “inactive”.
